Measurements taken from PMC7413254 (Nature Communications, 2020).
Where two headings read alike, the source gives them in different places. Where no end group is shown, it is not given here.

Columns and labels:
Type in all cases: cell-based
PfCRT^Ecu1110 [1] = biological target: T1, PfCRT^Ecu1110 (Plasmodium falciparum, UniProt Q9N623, A220S/I356L/K76T/N326D); assay: [3H]CQ uptake into Xenopus oocytes, cis-inhibition by unlabelled solute; conditions: for PfCRT-mediated [3H]CQ transport, cis-inhibition (% PfCRTEcu1110 control): PfCRTEcu1110 oocytes, background [3H]CQ accumulation subtracted, normalised to oocyte type control; for [3H]CQ transport (% PfCRTEcu1110 control), cis-inhibition, PfCRTEcu1110: PfCRT-mediated component (background subtracted), sheet title says normalised to PfCRTDd2 control, mean ± SEM
In short: (§1)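 Assay buffer ND96 (10 mM MES, 10 mM Tris-base) held at pH 5.5 to mimic vacuole lumen; uptake measured inward from this acidic medium over 1.5 h at 27.5 °C.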

PfCRT^Dd2 [2] = biological target: T2, PfCRT^Dd2 (Plasmodium falciparum, UniProt Q9N623, A220S/I356T/K76T/M74I/N326S/N75E/Q271E/R371I); assay: as above; conditions: for PfCRT-mediated [3H]CQ transport, cis-inhibition (% PfCRTDd2 control): PfCRTDd2 oocytes, background [3H]CQ accumulation subtracted, normalised to oocyte type control
In short: as §1

PfCRT^Ecu1110 [3] = biological target: T1, PfCRT^Ecu1110; assay: cell-based; conditions: for [3H]CQ transport (% PfCRTDd2 control), trans-stimulation, PfCRTEcu1110: PfCRT-mediated component (background subtracted), sheet title says normalised to PfCRTDd2 control, mean ± SEM, SEM
In short: (§2)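 Transport measured in Xenopus oocytes expressing the transporters, 1.5 h at 27.5 °C in ND96 pH 5.5 unless noted. For trans-stimulation, VF-6 injected in 25 nL ND96 at pH 5.0–7.0 or Na^+-free (choline) buffer; intracellular levels based on ~400 nL oocyte volume. Ten oocytes per treatment, ≥4 experiments.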

PfCRT^Dd2 [4] = biological target: T2, PfCRT^Dd2; assay: cell-based
In short: as §2

PfCRT^3D7 = PfCRT^3D7 (Plasmodium falciparum, UniProt Q8IBZ9); assay: cell-based; conditions: for [3H]CQ transport, PfCRT3D7 (% PfCRT3D7 control): solute 45 mM injected (estimated intracellular)
In short: as §2

PfNT1 = biological target: T3, PfNT1 (Plasmodium falciparum, UniProt Q8IDM6); assay: cell-based; conditions: trans-stimulation, solute 45 mM injected (estimated intracellular)
T3 construct: expressed in transfected cells; host or cells: Xenopus laevis oocytes (stage V-VI), cRNA-injected
In short: as §2

[5] = [test solute]i = 5 mM (intracellular), PfCRTEcu1110 oocytes, normalised to oocyte type control
[6] = [test solute]i = 45 mM (intracellular; 30 mM for some solutes due to solubility), PfCRTEcu1110 oocytes, normalised to oocyte type control
[7] = [test solute]i = 5 mM (intracellular), PfCRTDd2 oocytes, normalised to oocyte type control
[8] = [test solute]i = 45 mM (intracellular; 30 mM for some solutes due to solubility), PfCRTDd2 oocytes, normalised to oocyte type control
[9] = [test solute]i = 5 mM (intracellular), PfCRT3D7 oocytes, normalised to oocyte type control
[10] = [test solute]i = 45 mM (intracellular; 30 mM for some solutes due to solubility), PfCRT3D7 oocytes, normalised to oocyte type control
[11] = trans-stimulation, Experiment 1
[12] = trans-stimulation, Experiment 2
[13] = trans-stimulation, Experiment 3
[14] = trans-stimulation, Experiment 4
[15] = read-out: PfCRT-mediated [3H]CQ transport, cis-inhibition (% PfCRTEcu1110 control)
[16] = read-out: [3H]CQ transport (% PfCRTEcu1110 control), cis-inhibition, PfCRTEcu1110, SEM
[17] = read-out: PfCRT-mediated [3H]CQ transport, cis-inhibition (% PfCRTDd2 control)

T3 sequence (Q8IDM6 whole entry): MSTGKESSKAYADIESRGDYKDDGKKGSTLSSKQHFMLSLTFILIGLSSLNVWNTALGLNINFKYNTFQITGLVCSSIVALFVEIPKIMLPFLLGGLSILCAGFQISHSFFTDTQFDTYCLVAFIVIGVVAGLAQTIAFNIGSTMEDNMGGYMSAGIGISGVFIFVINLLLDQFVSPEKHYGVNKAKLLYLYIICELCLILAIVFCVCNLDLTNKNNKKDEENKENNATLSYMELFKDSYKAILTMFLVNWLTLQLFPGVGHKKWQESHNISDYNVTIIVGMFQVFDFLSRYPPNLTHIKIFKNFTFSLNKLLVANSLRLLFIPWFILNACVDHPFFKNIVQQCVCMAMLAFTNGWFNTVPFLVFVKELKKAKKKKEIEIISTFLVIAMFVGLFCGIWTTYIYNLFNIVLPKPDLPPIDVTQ
PfCRT^3D7, sequence (Q8IBZ9 59-398): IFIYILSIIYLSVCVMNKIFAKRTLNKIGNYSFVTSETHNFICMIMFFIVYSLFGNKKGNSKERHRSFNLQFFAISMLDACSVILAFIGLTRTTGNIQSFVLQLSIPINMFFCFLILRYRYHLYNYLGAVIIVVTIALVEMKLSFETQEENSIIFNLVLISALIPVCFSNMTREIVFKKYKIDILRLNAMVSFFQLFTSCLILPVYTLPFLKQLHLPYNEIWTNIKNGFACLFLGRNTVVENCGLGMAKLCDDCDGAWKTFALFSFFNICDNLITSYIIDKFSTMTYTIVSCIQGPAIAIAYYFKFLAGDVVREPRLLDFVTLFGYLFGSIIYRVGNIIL
T2 sequence (Q9N623 whole entry A220S/I356T/K76T/M74I/N326S/N75E/Q271E/R371I): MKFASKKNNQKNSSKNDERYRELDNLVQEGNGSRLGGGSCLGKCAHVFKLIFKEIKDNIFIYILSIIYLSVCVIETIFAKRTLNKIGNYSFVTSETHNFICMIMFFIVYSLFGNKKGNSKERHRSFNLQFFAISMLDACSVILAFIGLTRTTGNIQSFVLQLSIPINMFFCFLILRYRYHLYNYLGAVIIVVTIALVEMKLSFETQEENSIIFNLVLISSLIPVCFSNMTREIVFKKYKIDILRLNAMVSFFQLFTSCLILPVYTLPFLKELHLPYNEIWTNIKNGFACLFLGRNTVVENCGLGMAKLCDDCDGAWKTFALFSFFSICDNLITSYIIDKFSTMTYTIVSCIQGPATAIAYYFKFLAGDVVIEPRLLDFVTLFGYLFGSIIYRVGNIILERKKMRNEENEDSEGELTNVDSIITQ
T1 sequence (Q9N623 whole entry A220S/I356L/K76T/N326D): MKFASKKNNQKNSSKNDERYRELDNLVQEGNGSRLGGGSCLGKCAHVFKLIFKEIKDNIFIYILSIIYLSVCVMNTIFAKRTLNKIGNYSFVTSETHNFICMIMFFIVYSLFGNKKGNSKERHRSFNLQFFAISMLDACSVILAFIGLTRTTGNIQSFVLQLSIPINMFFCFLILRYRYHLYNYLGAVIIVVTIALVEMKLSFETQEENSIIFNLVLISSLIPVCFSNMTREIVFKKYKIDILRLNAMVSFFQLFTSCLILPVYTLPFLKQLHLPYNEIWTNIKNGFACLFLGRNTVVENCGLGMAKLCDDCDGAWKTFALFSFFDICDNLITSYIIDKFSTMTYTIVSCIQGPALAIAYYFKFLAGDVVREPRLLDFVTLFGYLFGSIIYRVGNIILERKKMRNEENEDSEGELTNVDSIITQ

Substance | PfCRT-mediated [3H]CQ transport, cis-inhibition (% PfCRTEcu1110 control) (PfCRT^Ecu1110 [1]; [test solute] = 0.5 mM) | PfCRT-mediated [3H]CQ transport, cis-inhibition (% PfCRTEcu1110 control) (PfCRT^Ecu1110 [1]; [test solute] = 1 mM) | PfCRT-mediated [3H]CQ transport, cis-inhibition (% PfCRTEcu1110 control) (PfCRT^Ecu1110 [1]; [test solute] = 2 mM) | PfCRT-mediated [3H]CQ transport, cis-inhibition (% PfCRTDd2 control) (PfCRT^Dd2 [2]; [test solute] = 0.5 mM) | PfCRT-mediated [3H]CQ transport, cis-inhibition (% PfCRTDd2 control) (PfCRT^Dd2 [2]; [test solute] = 1 mM) | PfCRT-mediated [3H]CQ transport, cis-inhibition (% PfCRTDd2 control) (PfCRT^Dd2 [2]; [test solute] = 2 mM) | PfCRT-mediated [3H]CQ transport, trans-stimulation (% PfCRTEcu1110 control) (PfCRT^Ecu1110 [3]; [5]) | PfCRT-mediated [3H]CQ transport, trans-stimulation (% PfCRTEcu1110 control) (PfCRT^Ecu1110 [3]; [6]) | PfCRT-mediated [3H]CQ transport, trans-stimulation (% PfCRTDd2 control) (PfCRT^Dd2 [4]; [7]) | PfCRT-mediated [3H]CQ transport, trans-stimulation (% PfCRTDd2 control) (PfCRT^Dd2 [4]; [8]) | PfCRT-mediated [3H]CQ transport, trans-stimulation (% PfCRT3D7 control) (PfCRT^3D7; [9]) | PfCRT-mediated [3H]CQ transport, trans-stimulation (% PfCRT3D7 control) (PfCRT^3D7; [10]) | [3H]CQ transport, PfCRT3D7 (% PfCRT3D7 control) (PfCRT^3D7; [11]) | [3H]CQ transport, PfCRT3D7 (% PfCRT3D7 control) (PfCRT^3D7; [12]) | [3H]CQ transport, PfCRT3D7 (% PfCRT3D7 control) (PfCRT^3D7; [13]) | [3H]CQ transport, PfCRT3D7 (% PfCRT3D7 control) (PfCRT^3D7; [14]) | [3H]CQ transport, PfNT1 (% PfCRTDd2 control) (PfNT1; Experiment 1) | [3H]CQ transport, PfNT1 (% PfCRTDd2 control) (PfNT1; Experiment 2) | [3H]CQ transport, PfNT1 (% PfCRTDd2 control) (PfNT1; Experiment 3) | [3H]CQ transport, PfNT1 (% PfCRTDd2 control) (PfNT1; Experiment 4) | further results
DLHAHKLR [DR-8] | 58 ± 1.2 | 42 ± 2.6 | 28 ± 2.4 | 47 ± 3.9 | 31 ± 2.1 | 12 ± 0.9 | 130 ± 3.3 | 139 ± 3.7 | 100 ± 2.9 | 110 ± 3.7 | 130 ± 5.2 | 181 ± 5.2 | 184.56 | 199.32 | 173.32 | 194.32 | 3.43 | 3.47 | 3.21 | 3.51 | –
HVDDM [HM-5] | – | – | – | – | – | – | – | – | – | – | – | – | 193.43 | 185.08 | 185.21 | 174.23 | 3.35 | 3.11 | 3.44 | 3.27 | inhibition at 1000 µM (PfCRT^Ecu1110 [1]; [15]): 41 ± 3.5%; inhibition at 2000 µM (PfCRT^Ecu1110 [1]; [15]): 32 ± 2.1%; inhibition at 500 µM (PfCRT^Ecu1110 [1]; [16]): 14 ± 0.1%; inhibition at 2000 µM (PfCRT^Ecu1110 [1]; [16]): 10 ± 0.5%; inhibition at 500 µM (PfCRT^Dd2 [2]; [17]): 32 ± 0.8%; inhibition at 1000 µM (PfCRT^Dd2 [2]; [17]): 19 ± 2%; inhibition at 2000 µM (PfCRT^Dd2 [2]; [17]): 9 ± 0.1%; activity at 5000 µM (PfCRT^Ecu1110 [3]; […], pH 5.5, read-out: PfCRT-mediated [3H]CQ transport, trans-stimulation (% PfCRTEcu1110 control), [test solute]i = 5 mM (intracellular), PfCRTEcu1110 oocytes, normalised to oocyte type control): 122 ± 1.1%; activity at 5000 µM (PfCRT^Dd2 [4]; […], pH 5.5, read-out: PfCRT-mediated [3H]CQ transport, trans-stimulation (% PfCRTDd2 control), [test solute]i = 5 mM (intracellular), PfCRTDd2 oocytes, normalised to oocyte type control): 100 ± 2.5%; activity at 5000 µM (PfCRT^Dd2 [4]; […], pH 5.5, read-out: [3H]CQ transport (% PfCRTDd2 control), trans-stimulation, PfCRTDd2, trans-stimulation, [test solute]i = 5 mM (injected), PfCRT-mediated component (background subtracted), mean ± SEM, SEM): 100 ± 2.5%; activity at 45000 µM (PfCRT^Dd2 [4]; […], pH 5.5, read-out: [3H]CQ transport (% PfCRTDd2 control), trans-stimulation, PfCRTDd2, trans-stimulation, [test solute]i = 45 mM (30 mM for some solutes due to solubility), PfCRT-mediated component (background subtracted), mean ± SEM, SEM): 113 ± 2.2%; activity at 5000 µM (PfCRT^3D7; […], read-out: PfCRT-mediated [3H]CQ transport, trans-stimulation (% PfCRT3D7 control), [test solute]i = 5 mM (intracellular), PfCRT3D7 oocytes, normalised to oocyte type control): 130 ± 4.2%; activity at 45000 µM (PfCRT^3D7; […], read-out: PfCRT-mediated [3H]CQ transport, trans-stimulation (% PfCRT3D7 control), [test solute]i = 45 mM (intracellular; 30 mM for some solutes due to solubility), PfCRT3D7 oocytes, normalised to oocyte type control): 178 ± 5.2%; [3H]CQ transport (% PfCRT3D7 control), trans-stimulation, PfCRT3D7 (PfCRT^3D7; trans-stimulation, [test solute]i = 5 mM (injected), PfCRT-mediated component (background subtracted), sheet title says normalised to PfCRTDd2 control, mean ± SEM, SEM): 0.2 ± 0.01 % PfCRT3D7 control
YFPHF [YF-5] | 63 ± 3.5 | 48 ± 1.0 | 32 ± 2.1 | 53 ± 3.1 | 39 ± 2.1 | 7.2 ± 0.1 | 120 ± 2.7 | 131 ± 3.6 | 97 ± 3.4 | 113 ± 2.4 | 128 ± 2.3 | 147 ± 4.2 | 142.23 | 155.33 | 162.85 | 149.32 | 2.73 | 2.48 | 2.58 | 2.37 | [3H]CQ transport (% PfCRTEcu1110 control), cis-inhibition, PfCRTEcu1110 (PfCRT^Ecu1110 [1]; [test solute] = 0.5 mM, SEM): 20 ± 0.4 % PfCRTEcu1110 control; [3H]CQ transport (% PfCRTEcu1110 control), cis-inhibition, PfCRTEcu1110 (PfCRT^Ecu1110 [1]; [test solute] = 1 mM, SEM): 15 ± 0.1 % PfCRTEcu1110 control; [3H]CQ transport (% PfCRTEcu1110 control), cis-inhibition, PfCRTEcu1110 (PfCRT^Ecu1110 [1]; [test solute] = 2 mM, SEM): 10 ± 0.3 % PfCRTEcu1110 control; [3H]CQ transport (% PfCRTDd2 control), trans-stimulation, PfCRTEcu1110 (PfCRT^Ecu1110 [3]; [test solute]i = 5 mM (injected)): 37 ± 1.5 % PfCRTEcu1110 control; [3H]CQ transport (% PfCRTDd2 control), trans-stimulation, PfCRTEcu1110 (PfCRT^Ecu1110 [3]; [test solute]i = 45 mM (30 mM for some solutes due to solubility)): 40 ± 1.5 % PfCRTEcu1110 control; [3H]CQ transport (% PfCRTDd2 control), trans-stimulation, PfCRTDd2 (PfCRT^Dd2 [4]; [test solute]i = 5 mM (injected), PfCRT-mediated component (background subtracted), mean ± SEM, SEM): 97 ± 3.4 % PfCRTDd2 control; [3H]CQ transport (% PfCRTDd2 control), trans-stimulation, PfCRTDd2 (PfCRT^Dd2 [4]; [test solute]i = 45 mM (30 mM for some solutes due to solubility), PfCRT-mediated component (background subtracted), mean ± SEM, SEM): 113 ± 2.4 % PfCRTDd2 control
